Experimental data from patent US20260069539A1, “LIPIDOID COMPOUNDS AND RELATED COMPOSITIONS AND USES” (Poseida Therapeutics, Inc., priority 2023, published 2026).

Experiments:
liver cells [1] = assay: In vivo LNP delivery of DNA encoding firefly luciferase, bioluminescent imaging (BLI) at 48 hr; set-up: species or system BALB/C mice; conditions: for Mean Luciferase Flux (p/s): adult BALB/C mice, 0.5 mg/kg DNA encoding firefly luciferase in LNP; for Mean Luciferase Flux (p/s) / Total Flux: BLI at 48 hr; for Total Flux: Example 103, 0.5 mg/kg DNA intravenous
Method: Adult BALB/C mice (n=3) were administered 0.5 mg/kg of DNA encoding firefly luciferase (Nature Technology Corp) formulated in a LNP composition listed in Table 4. One group of mice was treated with vehicle (PBS, Thermo Fisher Scientific, USA) as a negative control.
(§1) The location and extent of luciferase expression in treated and control mice were determined at 48 hr for DNA delivery by bioluminescent imaging (BLI) of anesthetized mice using an IVIS Lumina in vivo imaging system (Perkin Elmer) according to the manufacturer's instructions. Briefly, mice were anesthetized using isoflurane in oxygen, and placed supine on a heated stage. Mice were then administered D-luciferin (Perkin-Elmer #122799) IP, and BLI was performed.
as §1, with “DNA” for “DNA delivery”, “performed. […]” for “performed.”
Body weight loss (BWL) measurements were taken at 24 hrs post administration and luciferase expression was measured by whole body luminescence imaging (BLI) at 48 hours post-administration. […]
Luciferase expression was measured by whole body luminescence imaging (BLI) at 48 hours post-administration.

liver cells [2] = assay: In vivo LNP delivery of fLuciferase mRNA, bioluminescent imaging (BLI) at 4 hr; set-up: species or system BALB/C mice; conditions: for Total Flux: 0.5 mg/kg fLuciferase mRNA intravenous; for Mean Luciferase Flux: 0.5 mg/kg fLuc mRNA i.v., 4 hr
Method: Adult female BALB/C mice (n=3/group) were intravenously administered 0.5 mg/kg of 5′-CleanCap—fLuciferase mRNA (TriLink Biotech) formulated with the LNP compositions shown in Table 6. One group of mice was treated with vehicle (PBS, Thermo Fisher Scientific, USA) as a negative control.
as §1, with “determined at 4 hr for mRNA and 48 hr” for “determined at 48 hr”, “for DNA by bioluminescent” for “for DNA delivery by bioluminescent”
as §1, with “4” for “48”, “hr” for “hr for DNA delivery”
as §1, with “4” for “48”, “hr” for “hr for DNA delivery”
The location and extent of luciferase expression in treated and control mice were determined at 4 hr by bioluminescent imaging (BLI) of anesthetized mice using an IVIS Lumina in vivo imaging system (Perkin Elmer) according to the manufacturer's instructions.
Briefly, mice were anesthetized using isoflurane in oxygen, and placed supine on a heated stage. Mice were then administered D-luciferin (Perkin-Elmer #122799) IP, and BLI was performed.
as §1, with “4” for “48”, “hr” for “hr for DNA delivery”

[3] = Body weight change / body weight loss 24 hours post-administration of LNP; format: in vivo, BALB/C mice; conditions: fLuc mRNA 0.5 mg/kg i.v.
Method: In addition, the body weight of mice treated with LNP compositions of the present disclosure prepared as described in Example 77 was assessed prior to intravenous administration and 24 hours post-administration and the body weights at baseline and post-treatment were compared.
In addition, the body weight of mice treated with LNP compositions of the present disclosure was assessed prior to intravenous administration and 24 hours post-administration and the body weights at baseline and post-treatment were compared.
Body weight loss (BWL) measurements were taken at 24 hrs post administration and luciferase expression was measured by whole body luminescence imaging (BLI) at 48 hours post-administration.
Blood was drawn from control and treated mice 4 hrs post-administration for cytokine analysis, body weight loss (BWL) measurements were taken at 24 hrs post administration and luciferase expression was measured by whole body luminescence imaging (BLI) at 48 hours post-administration.

[4] = Example 104, experiment of Table 64, BLI at 4 hr
[5] = LNP with 50 % moles of COMPOUND NO. 38 or 39 (DOPC 10/Chol 38.5/PEG-DMG 1.5, Lipid:RNA 80)
[6] = Table 15 experiment, LNP with 40.75 % moles of the compound (Lipid:RNA 80)
[7] = Table 15 experiment, LNP with 50 % moles of the compound (Lipid:RNA 80)
[8] = LNP with 40.75 % moles of the compound
[9] = LNP with 50 % moles of the compound
[10] = Example 104, experiment of Table 65, BLI at 4 hr
[11] = Table 13 experiment, LNP with 50 % moles of the compound (DOPC 10/Chol 38.5/PEG-DMG 1.5, Lipid:RNA 80)
[12] = Example 104, experiment of Table 63, BLI at 4 hr

Structure (SMILES): CCCCCC1CCC(C(=O)OCCOC(=O)CCN(CCCN(C)CCCN(CCC(=O)OCCOC(=O)[C@H]2CC[C@H](CCCCC)CC2)CCC(=O)OCCOC(=O)[C@H]2CC[C@H](CCCCC)CC2)CCC(=O)OCCOC(=O)C2CCC(CCCCC)CC2)CC1 (stereo partly drawn) [COMPOUND NO. 3]
- Mean Luciferase Flux (p/s) (liver cells [1]): 2.12E+08 p/s

Structure (SMILES): CCCCCCCCCCCC(=O)OCC(COC(=O)CCCCCCCCCCC)COC(=O)CCCCCN(CCO)CCCCCC(=O)OCC(COC(=O)CCCCCCCCCCC)COC(=O)CCCCCCCCCCC [compound 100, reference compound]
- DNA delivery potency (liver cells [1]; 0.5 mg/kg DNA, BLI 48 hr, compared to LNPs comprising COMPOUND NOS. 36, 37, or 38): greatly reduced
- Total Flux (liver cells [1]; LNP comprising compound 100, composition not stated): 1.97E+07 p/s
- RNA delivery potency (liver cells [2]; 0.5 mg/kg fLuciferase mRNA in LNP, BLI at 4 hr): RNA delivery potency increases with increasing number of cyclohexyl-substituted tails
- Total Flux (liver cells [2]; [4]): 3.24E+10 p/s

Structure (SMILES): CCCCC[C@H]1CC[C@H](C(=O)OCC(COC(=O)CCCCCN(CCCCCC(=O)COC(COC(=O)[C@H]2CC[C@H](CCCCC)CC2)COC(=O)[C@H]2CC[C@H](CCCCC)CC2)CCCCNC(C)=O)COC(=O)[C@H]2CC[C@H](CCCCC)CC2)CC1 [COMPOUND NO. 39]
- Total Flux (liver cells [1]; LNP with 10% DOPC): 2.03E+06 p/s
- Mean Luciferase Flux (liver cells [2]; [5]): 9.49E+10 p/s

Structure (SMILES): CCCCCC1CCC(C(=O)OCCOC(=O)CCN(CCCN(C)CCN(CCC(=O)OCCOC(=O)[C@H]2CC[C@H](CCCCC)CC2)CCC(=O)OCCOC(=O)[C@H]2CC[C@H](CCCCC)CC2)CCC(=O)OCCOC(=O)C2CCC(CCCCC)CC2)CC1 (stereo partly drawn) [COMPOUND NO. 4]
- Mean Luciferase Flux (p/s) (liver cells [1]): 1.36E+09 p/s

Structure (SMILES): CC(C)CCCC1CCC(COC(=O)C(CCCN(CCO)CCCC(C(=O)OCC2CCC(CCCC(C)C)CC2)C(=O)OCC2CCC(CCCC(C)C)CC2)C(=O)OCC2CCC(CCCC(C)C)CC2)CC1 (stereo not drawn) [COMPOUND NO. 42]
- Mean Luciferase Flux (liver cells [2]; [6]): 1.23E+09 p/s
- Mean Luciferase Flux (liver cells [2]; [7]): 8.27E+09 p/s
- % body weight change [3, 8]: −2.3%
- % body weight change [3, 9]: −4.0%

Structure (SMILES): CCCCC[C@H]1CC[C@H](C(=O)OCC(COC(=O)CCCCN(CCCCO)CCCCC(=O)OCC(COC(=O)[C@H]2CC[C@H](CCCCC)CC2)COC(=O)[C@H]2CC[C@H](CCCCC)CC2)COC(=O)[C@H]2CC[C@H](CCCCC)CC2)CC1 [COMPOUND NO. 73]
- Total Flux (liver cells [2]; [10]): 1.61E+11 p/s

Structure (SMILES): CCCCCCCCC(CCCCCCCC)OC(=O)[C@H]1CC[C@H](C(=O)OCCCCCN(CCCCO)CCCCCOC(=O)[C@H]2CC[C@H](C(=O)OC(CCCCCCCC)CCCCCCCC)CC2)CC1 [COMPOUND NO. 32]
- Mean Luciferase Flux (liver cells [2]; [11]): 7.76E+09 p/s

Structure (SMILES): CCCCCC(=O)OCC1CCC(COC(=O)C(CCCN(C)CCCC(C(=O)OCC2CCC(COC(=O)CCCCC)CC2)C(=O)OCC2CCC(COC(=O)CCCCC)CC2)C(=O)OCC2CCC(COC(=O)CCCCC)CC2)CC1 (stereo not drawn) [COMPOUND NO. 41]
- Mean Luciferase Flux (liver cells [2]; [6]): 3.79E+09 p/s
- Mean Luciferase Flux (liver cells [2]; [7]): 5.26E+09 p/s
- % body weight change [3, 8]: −1.8%
- % body weight change [3, 9]: −2.6%

Structure (SMILES): CCCCC[C@H]1CC[C@H](C(=O)OCC(COC(=O)CCCCN(CCO)CCCCC(=O)OCC(COC(=O)[C@H]2CC[C@H](CCCCC)CC2)COC(=O)[C@H]2CC[C@H](CCCCC)CC2)COC(=O)[C@H]2CC[C@H](CCCCC)CC2)CC1 [COMPOUND NO. 71]
- Total Flux (liver cells [2]; [10]): 1.78E+11 p/s

Structure (SMILES): CCCCC[C@H]1CC[C@H](C(=O)OCC(COC(=O)CCCCCN(CCCCCC(=O)OCC(COC(=O)[C@H]2CC[C@H](CCCCC)CC2)COC(=O)[C@H]2CC[C@H](CCCCC)CC2)C[C@H](C)O)COC(=O)[C@H]2CC[C@H](CCCCC)CC2)CC1 [COMPOUND NO. 56]
- Total Flux (liver cells [2]; [12]): 9.88E+10 p/s

Structure (SMILES): CCCCC[C@H]1CC[C@H](C(=O)OCC(COC(=O)CCCCCN(CCCCCC(=O)OCC(COC(=O)[C@H]2CC[C@H](CCCCC)CC2)COC(=O)[C@H]2CC[C@H](CCCCC)CC2)[C@H]2CC[C@H](O)CC2)COC(=O)[C@H]2CC[C@H](CCCCC)CC2)CC1 [COMPOUND NO. 53]
- Total Flux (liver cells [1]; LNP with 10% DOPC): 4.23E+07 p/s

Structure (SMILES): O=C(CCCCCN(CCCCO)CCCCCC(=O)OCC(COC(=O)CCCCC1CCCCC1)COC(=O)CCCCC1CCCCC1)OCC(COC(=O)CCCCC1CCCCC1)COC(=O)CCCCC1CCCCC1 [COMPOUND NO. 67]
- Total Flux (liver cells [2]; [10]): 3.79E+11 p/s

Structure (SMILES): O=C(CCCCCN(CCO)CCCCCC(=O)OCC(COC(=O)CCCCC1CCCCC1)COC(=O)CCCCC1CCCCC1)OCC(COC(=O)CCCCC1CCCCC1)COC(=O)CCCCC1CCCCC1 [COMPOUND NO. 65]
- Total Flux (liver cells [2]; [12]): 1.30E+11 p/s

Structure (SMILES): CCCCC[C@H]1CC[C@H](C(=O)OCC(COC(=O)CCCCCN(CCCCCC(=O)OCC(COC(=O)[C@H]2CC[C@H](CCCCC)CC2)COC(=O)[C@H]2CC[C@H](CCCCC)CC2)C[C@@H](C)O)COC(=O)[C@H]2CC[C@H](CCCCC)CC2)CC1 [COMPOUND NO. 57]
- Total Flux (liver cells [2]; [12]): 9.69E+10 p/s

Structure (SMILES): CCCCCCCCC(CCCCCC)C(=O)O[C@H]1CC[C@H](OC(=O)CCCCCN(CCCO)CCCCCC(=O)O[C@H]2CC[C@H](OC(=O)C(CCCCCC)CCCCCCCC)CC2)CC1 (stereo partly drawn) [COMPOUND NO. 28]
- Mean Luciferase Flux (liver cells [2]; [11]): 3.28E+10 p/s

Structure (SMILES): CCCCC[C@H]1CC[C@H](C(=O)OCC(COC(=O)CCCCCN(CCCCCC(=O)OCC(COC(=O)[C@H]2CC[C@H](CCCCC)CC2)COC(=O)[C@H]2CC[C@H](CCCCC)CC2)[C@H]2CC[C@H](CO)CC2)COC(=O)[C@H]2CC[C@H](CCCCC)CC2)CC1 [COMPOUND NO. 54]
- Total Flux (liver cells [2]; [12]): 1.30E+11 p/s

Structure (SMILES): CCCCC[C@H]1CC[C@H](C(=O)OCC(COC(=O)CCCCCN(CCCCCC(=O)OCC(COC(=O)[C@H]2CC[C@H](CCCCC)CC2)COC(=O)[C@H]2CC[C@H](CCCCC)CC2)Cc2ccccc2)COC(=O)[C@H]2CC[C@H](CCCCC)CC2)CC1 [COMPOUND NO. 63]
- Total Flux (liver cells [2]; [4]): 3.48E+05 p/s

Structure (SMILES): CCCCCCCCC(CCCCCCCC)OC(=O)[C@H]1CC[C@H](C(=O)OCCCCCN(CCO)CCCCCOC(=O)[C@H]2CC[C@H](C(=O)OC(CCCCCCCC)CCCCCCCC)CC2)CC1 [COMPOUND NO. 30]
- Mean Luciferase Flux (liver cells [2]; [11]): 2.54E+10 p/s

Structure (SMILES): CCCCC[C@H]1CC[C@H](C(=O)OCC(COC(=O)CCCCCN(CCCCO)CCCCCC(=O)COC(COC(=O)[C@H]2CC[C@H](CCCCC)CC2)COC(=O)[C@H]2CC[C@H](CCCCC)CC2)COC(=O)[C@H]2CC[C@H](CCCCC)CC2)CC1 [COMPOUND NO. 38]
- Total Flux (liver cells [1]; LNP with 10% DSPC): 8.29E+07 p/s
- Mean Luciferase Flux (liver cells [2]; [5]): 1.17E+11 p/s
